Experimental data reported in ChEMBL document CHEMBL1139594, “Azinomycin inspired bisepoxides: influence of linker structure on in vitro cytotoxicity and DNA interstrand cross-linking” (2005).

Experiments:
Type in all cases: functional
[1] = Total growth inhibition of NCI panel of 60 human cancer cell lines
[2] = Growth inhibitory concentration against NCI panel of 60 human cancer cell lines
[3] = Mean cytotoxicity towards NCI panel of 60 human cancer cell lines; conditions: read-out: LC50 (the source's name)

Row | SMILES | TGI [1] [µM] | GI50 [2] [µM] | CC50 [3] [µM]
1 | COc1cc(C(=O)O[C@H](C(N)=O)[C@]2(C)CO2)c2cccc(C)c2c1 | 2 | 0.214 | 33
2 | COc1cc(C(=O)O[C@H](C(=O)NCCN(C)CCNC(=O)[C@@H](OC(=O)c2cc(OC)cc3c(C)cccc23)[C@]2(C)CO2)[C@]2(C)CO2)c2cccc(C)c2c1 | 0.35 | 0.028 | 14.4
3 | COc1cc(C(=O)O[C@H](C(=O)NCCCNC(=O)[C@@H](OC(=O)c2cc(OC)cc3c(C)cccc23)[C@]2(C)CO2)[C@]2(C)CO2)c2cccc(C)c2c1 | 0.21 | 0.031 | 3.2
4 | COc1cc(C(=O)O[C@H](C(=O)NCCNC(=O)[C@@H](OC(=O)c2cc(OC)cc3c(C)cccc23)[C@]2(C)CO2)[C@]2(C)CO2)c2cccc(C)c2c1 | 2.4 | 0.072 | 62
5 | COc1cc(C(=O)O[C@H](C(=O)NCCCCNC(=O)[C@@H](OC(=O)c2cc(OC)cc3c(C)cccc23)[C@]2(C)CO2)[C@]2(C)CO2)c2cccc(C)c2c1 | 0.55 | 0.053 | 14.8
6 | COc1cc(C(=O)O[C@H](C(=O)NCCCCCNC(=O)[C@@H](OC(=O)c2cc(OC)cc3c(C)cccc23)[C@]2(C)CO2)[C@]2(C)CO2)c2cccc(C)c2c1 | 3.4 | 0.178 | 50
